Experiments:
Assay type in all cases: cell-based
[1] = tested on: Escherichia coli (ATCC 35218); assay: Detection of the inhibition zone around a support impregnated with antibiotic, by ombroscopy / micro-ombroscopy
Excerpt: (§1) In general terms, referring to FIG. 2, the method of detection 100 of the present invention comprises a first step 101 of seeding the culture medium 2 with an extract of biological particles 1. The extract of biological particles 1 is for example a raw sample of biological particles 1 taken from the patient directly. In this case the raw sample undergoes a preculture phase for isolating strains of biological particles 1 present, in the case of a sample comprising a diversity of biological particles 1, and increase of the biological particles 1 selected and isolated. […] The sample of biological particles 1 has a biomass of biological particles 1 that is sufficient to be analyzed validly, such as a standard at a concentration of 0.5 McFarland. The extract of biological particles 1 is for example from urine, blood, cerebrospinal fluid or a similar biological fluid.
(§2) The culture medium 2 is for example flooded with the extract of biological particles 1, or the culture medium 2 is seeded with biological particles 1 by swabbing, or the culture medium 2 receives the biological particles by spreading them using a rake. Then, the Petri dish 4 is agitated transversely to distribute the extract of biological particles 1 as uniformly as possible on the culture medium 2, and then any supernatant is removed from the Petri dish 4. The first step of seeding 101 may have features different from those described above without departing from the rules of the present invention.
The method of detection 100 then comprises a second step 102 of receiving at least one dose of the chemical agent 3 at the initial time point T0, for example starting from placement of at least one impregnated support 5 inoculated with the chemical agent 3 on a receiving zone R of the impregnated support 5 on the culture medium 2.
The impregnated support 5 is for example a disk impregnated with the chemical agent 3, the disk having the overall conformation of a thin slice of a cylinder. The disk comprises an amount of chemical agent 3 that is homogeneous overall in its volume. […]

[2] = tested on: Escherichia coli (ATCC 25922); assay: Detection of the inhibition zone around a support impregnated with antibiotic, by micro-ombroscopy; conditions: micro-ombroscopy (FIG. 10 device), detection time TX of two hours
Excerpt: as §1
as §2, with “The first step of seeding 101 may have features different from those described above without departing from the rules of the present invention.” left out

[3] = tested on: Escherichia coli (ATCC 25922); assay: Minimum inhibitory concentration calculated from the normed representation (ombroscopy image plus ruler); conditions: starting from six hours, FIGS. 26 and 27
Excerpt: (§3) The impregnated support 5 is for example also a slender strip, of overall rectangular conformation. The strip comprises for example a concentration of chemical agent 3 that follows an increasing concentration gradient from one short edge to an opposite short edge of the strip. In FIG. 19, the fifth processing step 105 comprises a second phase X2 of taking a control photograph 7' of a ruler 15 arranged on the culture medium 2 contained in the Petri dish 4, the second phase X2 also being carried out by the detecting device 12. Then the fifth processing step 105 comprises a third phase X3 of superimposing the image 7 and the control photograph 7' and more particularly of their respective receiving zone R to form a normed representation 7'' of the culture medium 2. In FIG. 20, the fifth processing step 105 comprises a fourth phase X4 of localization of a reference mark 16 of the ruler 15. In the example shown, the reference mark 16 is the indication “256” on the ruler 15, and the reference mark 16 may consist of some other and relatively any indication. The reference mark 16 comprises Cartesian coordinates […] and […]. In FIGS. 21 to 25, the fifth processing step 105 comprises a fifth phase X5 of processing the normed representation 7''. In FIG. 21, the fifth phase X5 comprises at least one smoothing operation for homogenizing the normed representation 7''. […]

[4] = tested on: Staphylococcus aureus (ATCC 25923); assay: as above; conditions: starting from six hours, FIG. 28
Excerpt: as §3

[5] = tested on: Escherichia coli (ATCC 35218); assay: Minimum inhibitory concentration / inhibition zone from the normed representation (ombroscopy image plus ruler)
Excerpt: as §3

CC1(C)S[C@@H]2[C@H](NC(=O)[C@H](N)c3ccccc3)C(=O)N2[C@H]1C(=O)O [ampicillin]
response of the biological particles to the chemical agent (sensitivity / resistance) ([1]; micro-ombroscopy (FIG. 10 device), detection time TX of four hours): resistance
response of the biological particles to the chemical agent (sensitivity / resistance) ([1]; ombroscopy (FIG. 9 device), identifiable starting from four hours, images up to twenty-four hours): resistance
presence or absence of inhibition zone ([1]; ombroscopy (FIG. 9 device), starting from four hours): no inhibition zone is detected
response of the biological particles to the chemical agent (sensitivity / resistance) [2]: sensitivity
response characterized from the calculated minimum concentration MIC [3]: sensitive
response characterized from the calculated minimum concentration MIC [4]: sensitive
response from the normed representation ([5]; FIG. 29, based on absence of a first inhibition zone Z1): resistant
response from the normed representations, according to EUCAST ([5]; FIG. 30): resistant
